The values below come from PMC6222781, “Structural Optimization of Foldamer-Dendrimer Conjugates as Multivalent Agents against the Toxic Effects of Amyloid Beta Oligomers” (Molecules : A Journal of Synthetic Chemistry and Natural …, 2018).

The target of this experiment is T1, Aβ oligomers (Homo sapiens, UniProt P05067).
T1 construct: Ser^26 depsipeptide iso-Aβ (1–42) was used; made in house; host or cells: chemical peptide synthesis (no expression host)
Put plainly: Isothermal titration calorimetry (ITC) binding to Aβ oligomers. Particulars: Table 2, PBS pH 7.4, 285 K; for Kd: Aβ 100 µM in cell, ligand 250 µM in syringe, two independent site model; for ΔG, first binding stage / ΔH, first binding stage / ΔG, second binding stage / ΔH, second binding stage: ITC. On the procedure:
The binding affinities of 2b–2i to Aβ oligomers were tested in ITC experiments.
In this work, Ser^26 depsipeptide iso-Aβ (1–42) was used, which was synthesized and purified as described previously. The lyophilized iso-Aβ (1–42) was dissolved in MilliQ water to a concentration of 1 mg mL^−1, sonicated for 3 min and the pH was set to 7.0 to initiate an O to N acyl migration, whereby the native sequence can be readily formed. The sample was incubated at room temperature for 10 min. Then the pH was set to 11 and the sample was kept at room temperature for additional 2 h. After the incubation, the Aβ stock solution was aliquoted and stored at −20 °C until use. To obtain Aβ oligomers, the 1 mg mL^−1 aliquot was diluted to a final concentration of 50 μM with 26.67 mM PBS and the pH was set to 7.4 with 1 M HCl. The sample was incubated at 37 °C for 3 h.
Isothermal calorimetric titrations were performed with a Microcal VP-ITC microcalorimeter in pH 7.4 PBS buffer solution. In individual titrations, 10 µL portions of the ligand containing solution were repeatedly injected from the computer-controlled 300-µL microsyringe at intervals of 300 s into the Aβ oligomer solution prepared in the same buffer as the ligand. All measurements were carried out at 285 K. The Aβ concentration in the cell was 100 µM and the total ligand concentration was 250 µM in the syringe and the titration was stopped when the precipitation of the Aβ aggregates became excessive. Control experiments were performed by injecting the ligand into a cell containing buffer with no target, and the heats of dilution were subtracted from those measured in the presence of Aβ. The experimental data were fitted to the two independent site binding models by using a nonlinear least-squares procedure, with ΔHb, ΔHb’, Kd, Kd’ ([…]), n and n’ (number of binding sites for monomer), as adjustable parameters.

T1 sequence (P05067 672-713 limits assumed): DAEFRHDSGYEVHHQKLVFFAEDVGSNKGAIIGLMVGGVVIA

In the case of `N=C(N)NCCC[C@@H](CC(=O)N[C@H]1CCCC[C@@H]1C(=O)N[C@H]1CCCC[C@@H]1C(=O)N[C@@H](CC(=O)O)CC(=O)N[C@H]1CCCC[C@@H]1C(=O)NCC(=O)NCC(=O)N[C@@H](CSC1CC(=O)N(CCC(=O)NCCNC(=O)CCN(CCNC(=O)CCN(CCC(=O)NCCN(CCC(=O)NCCNC(=O)CCN2C(=O)CC(SC[C@H](NC(=O)CNC(=O)CNC(=O)[C@H]3CCCC[C@@H]3NC(=O)C[C@H](CC(=O)O)NC(=O)[C@H]3CCCC[C@@H]3NC(=O)[C@H]3CCCC[C@@H]3NC(=O)C[C@H](CCCNC(=N)N)NC(=O)[C@H]3CCCC[C@@H]3N)C(N)=O)C2=O)CCC(=O)NCCNC(=O)CCN2C(=O)CC(SC[C@H](NC(=O)CNC(=O)CNC(=O)[C@H]3CCCC[C@@H]3NC(=O)C[C@H](CC(=O)O)NC(=O)[C@H]3CCCC[C@@H]3NC(=O)[C@H]3CCCC[C@@H]3NC(=O)C[C@H](CCCNC(=N)N)NC(=O)[C@H]3CCCC[C@@H]3N)C(N)=O)C2=O)CCN(CCC(=O)NCCN(CCC(=O)NCCNC(=O)CCN2C(=O)CC(SC[C@H](NC(=O)CNC(=O)CNC(=O)[C@H]3CCCC[C@@H]3NC(=O)C[C@H](CC(=O)O)NC(=O)[C@H]3CCCC[C@@H]3NC(=O)[C@H]3CCCC[C@@H]3NC(=O)C[C@H](CCCNC(=N)N)NC(=O)[C@H]3CCCC[C@@H]3N)C(N)=O)C2=O)CCC(=O)NCCNC(=O)CCN2C(=O)CC(SC[C@H](NC(=O)CNC(=O)CNC(=O)[C@H]3CCCC[C@@H]3NC(=O)C[C@H](CC(=O)O)NC(=O)[C@H]3CCCC[C@@H]3NC(=O)[C@H]3CCCC[C@@H]3NC(=O)C[C@H](CCCNC(=N)N)NC(=O)[C@H]3CCCC[C@@H]3N)C(N)=O)C2=O)CCC(=O)NCCN(CCC(=O)NCCNC(=O)CCN2C(=O)CC(SC[C@H](NC(=O)CNC(=O)CNC(=O)[C@H]3CCCC[C@@H]3NC(=O)C[C@H](CC(=O)O)NC(=O)[C@H]3CCCC[C@@H]3NC(=O)[C@H]3CCCC[C@@H]3NC(=O)C[C@H](CCCNC(=N)N)NC(=O)[C@H]3CCCC[C@@H]3N)C(N)=O)C2=O)CCC(=O)NCCNC(=O)CCN2C(=O)CC(SC[C@H](NC(=O)CNC(=O)CNC(=O)[C@H]3CCCC[C@@H]3NC(=O)C[C@H](CC(=O)O)NC(=O)[C@H]3CCCC[C@@H]3NC(=O)[C@H]3CCCC[C@@H]3NC(=O)C[C@H](CCCNC(=N)N)NC(=O)[C@H]3CCCC[C@@H]3N)C(N)=O)C2=O)CCC(=O)NCCNC(=O)CCN2C(=O)CC(SC[C@H](NC(=O)CNC(=O)CNC(=O)[C@H]3CCCC[C@@H]3NC(=O)C[C@H](CC(=O)O)NC(=O)[C@H]3CCCC[C@@H]3NC(=O)[C@H]3CCCC[C@@H]3NC(=O)C[C@H](CCCNC(=N)N)NC(=O)[C@H]3CCCC[C@@H]3N)C(N)=O)C2=O)C1=O)C(N)=O)NC(=O)[C@H]1CCCC[C@@H]1N` (stereo partly drawn) [Compound 6], the Kd (commonly the concentration at which binding is half-saturated) (first binding stage) is 69 ± 12 nM and the Kd (second binding stage) stood at 193 ± 30.5 nM.
In the case of `N=C(N)NCCC[C@@H](CC(=O)N[C@H]1CCCC[C@@H]1C(=O)N[C@H]1CCCC[C@@H]1C(=O)N[C@@H](CC(=O)O)CC(=O)N[C@H]1CCCC[C@@H]1C(=O)NCC(=O)NCC(=O)N[C@@H](CSC1CC(=O)N(CCC(=O)NCCCC[C@H](NC(=O)CCN2C(=O)CC(SC[C@H](NC(=O)CNC(=O)CNC(=O)[C@H]3CCCC[C@@H]3NC(=O)C[C@H](CC(=O)O)NC(=O)[C@H]3CCCC[C@@H]3NC(=O)[C@H]3CCCC[C@@H]3NC(=O)C[C@H](CCCNC(=N)N)NC(=O)[C@H]3CCCC[C@@H]3N)C(N)=O)C2=O)C(=O)NCCCC[C@H](NC(=O)[C@H](CCCCNC(=O)CCN2C(=O)CC(SC[C@H](NC(=O)CNC(=O)CNC(=O)[C@H]3CCCC[C@@H]3NC(=O)C[C@H](CC(=O)O)NC(=O)[C@H]3CCCC[C@@H]3NC(=O)[C@H]3CCCC[C@@H]3NC(=O)C[C@H](CCCNC(=N)N)NC(=O)[C@H]3CCCC[C@@H]3N)C(N)=O)C2=O)NC(=O)CCN2C(=O)CC(SC[C@H](NC(=O)CNC(=O)CNC(=O)[C@H]3CCCC[C@@H]3NC(=O)C[C@H](CC(=O)O)NC(=O)[C@H]3CCCC[C@@H]3NC(=O)[C@H]3CCCC[C@@H]3NC(=O)C[C@H](CCCNC(=N)N)NC(=O)[C@H]3CCCC[C@@H]3N)C(N)=O)C2=O)C(=O)NCC(N)=O)C1=O)C(N)=O)NC(=O)[C@H]1CCCC[C@@H]1N` (stereo partly drawn) [Compound 7], the Kd is, setting by setting: (first binding stage) 16.2 ± 8.9 nM; (second binding stage) 128 ± 56.7 nM.
With `CC(=O)N[C@@H](CCCCNC(=O)CCN1C(=O)CC(SC[C@H](NC(=O)CNC(=O)CNC(=O)[C@H]2CCCC[C@@H]2NC(=O)C[C@H](CC(=O)O)NC(=O)[C@H]2CCCC[C@@H]2NC(=O)[C@H]2CCCC[C@@H]2NC(=O)C[C@H](CCCNC(=N)N)NC(=O)[C@H]2CCCC[C@@H]2N)C(N)=O)C1=O)C(=O)NCC(=O)N[C@@H](CCCCNC(=O)CCN1C(=O)CC(SC[C@H](NC(=O)CNC(=O)CNC(=O)[C@H]2CCCC[C@@H]2NC(=O)C[C@H](CC(=O)O)NC(=O)[C@H]2CCCC[C@@H]2NC(=O)[C@H]2CCCC[C@@H]2NC(=O)C[C@H](CCCNC(=N)N)NC(=O)[C@H]2CCCC[C@@H]2N)C(N)=O)C1=O)C(=O)NCC(=O)N[C@@H](CCCCNC(=O)CCN1C(=O)CC(SC[C@H](NC(=O)CNC(=O)CNC(=O)[C@H]2CCCC[C@@H]2NC(=O)C[C@H](CC(=O)O)NC(=O)[C@H]2CCCC[C@@H]2NC(=O)[C@H]2CCCC[C@@H]2NC(=O)C[C@H](CCCNC(=N)N)NC(=O)[C@H]2CCCC[C@@H]2N)C(N)=O)C1=O)C(=O)NCC(=O)N[C@@H](CCCCNC(=O)CCN1C(=O)CC(SC[C@H](NC(=O)CNC(=O)CNC(=O)[C@H]2CCCC[C@@H]2NC(=O)C[C@H](CC(=O)O)NC(=O)[C@H]2CCCC[C@@H]2NC(=O)[C@H]2CCCC[C@@H]2NC(=O)C[C@H](CCCNC(=N)N)NC(=O)[C@H]2CCCC[C@@H]2N)C(N)=O)C1=O)C(N)=O` (stereo partly drawn) [Compound 8], under “first binding stage”, the “ΔG, first binding stage” value was -11.07 kcal/M and the “ΔH, first binding stage” value was found to be 2.31 kcal/M. Further, under “second binding stage”, the “ΔG, second binding stage” value was -8.48 kcal/M and the “ΔH, second binding stage” value was 0.51 kcal/M.
The matching figures for `N=C(N)NCCC[C@@H](CC(=O)N[C@H]1CCCC[C@@H]1C(=O)N[C@H]1CCCC[C@@H]1C(=O)N[C@@H](CC(=O)O)CC(=O)N[C@H]1CCCC[C@@H]1C(=O)NCC(=O)NCC(=O)N[C@@H](CSSC[C@H](NC(=O)CNC(=O)CNC(=O)[C@H]1CCCC[C@@H]1NC(=O)C[C@H](CC(=O)O)NC(=O)[C@H]1CCCC[C@@H]1NC(=O)[C@H]1CCCC[C@@H]1NC(=O)C[C@H](CCCNC(=N)N)NC(=O)[C@H]1CCCC[C@@H]1NC(=O)CCC(=O)NCCOCCOCCNC(=O)[C@H]1CCCC[C@@H]1NC(=O)C[C@H](CC(=O)O)NC(=O)[C@H]1CCCC[C@@H]1NC(=O)[C@H]1CCCC[C@@H]1NC(=O)C[C@H](CCCNC(=N)N)NC(=O)[C@H]1CCCC[C@@H]1N)C(N)=O)C(N)=O)NC(=O)[C@H]1CCCC[C@@H]1NC(=O)CCC(=O)NCCOCCOCCNC(=O)[C@H]1CCCC[C@@H]1NC(=O)C[C@H](CC(=O)O)NC(=O)[C@H]1CCCC[C@@H]1NC(=O)[C@H]1CCCC[C@@H]1NC(=O)C[C@H](CCCNC(=N)N)NC(=O)[C@H]1CCCC[C@@H]1N` [Compound 9]: -9.83 kcal/M, 6.01 kcal/M, -8.48 kcal/M and 1.18 kcal/M.
